Assay results taken from patent US20030125322A1, “Crystalline form I of 2-methyl-4-(4-methyl-1-piperazinyl) 10H thieno [2,3-b][1,5]benzodiazepine” (SUN PARMACEUTICAL INDUSTRIES LIMITED, priority 2001, published 2003).
“Also recorded” adds a separate entry of the source.

How the values were obtained:
[1] = cited from earlier work; for colour stability on standing / storage: prior-art material as reported ('382 process Form I; '541 Form II)
[2] = Storage stability of the crystalline form (colour, infrared spectrum, x-ray diffractogram); assay type: physicochemical; details: for change in colour, Infrared spectrum and X-ray diffractogram on storage: accelerated conditions
Description: The crystalline Form I of 2-methyl-4-(4-methyl-1-piperazinyl)-10H-thieno[2,3-b][1,5]benzodiazepine of the present invention has a typical x-ray powder diffraction pattern as represented by d (interplanar spacing) values 9.9446, 8.5272, 8.1949, 6.8637, 6.3510, 5.4653, 4.8278, 4.7121, 4.5295, 4.2239, 4.0788, 3.8230, 3.7525, 3.6909, 3.4995, 3.3393, 3.1051, 2.9451, 2.8182, 2.7589, 2.5925, 2.3369, 2.0251, 1.9183; infrared absorbance bands at approximately 1456, 1365, 905, 757, 662 & 604 cm^−1 and a stable colour.

Row | Structure (SMILES) | colour stability on standing / storage [1] | stability of crystal form ([1]; Form I obtained by the '382 process, as reported) | change in colour, Infrared spectrum and X-ray diffractogram on storage ([2]; 40° C. and 75% relative humidity for one month) | change in colour, Infrared spectrum and X-ray diffractogram on storage ([2]; 40° C. and 75% relative humidity for one month, listed as Example 2) | change in colour, Infrared spectrum and X-ray diffractogram on storage ([2]; 75-80° C. for 25 days) | change in colour, Infrared spectrum and X-ray diffractogram on storage ([2]; 75-80° C. for 25 days, listed as Example 2) | change in colour, infrared spectrum and x-ray diffractogram on storage ([2]; ambient conditions of storage, about 15° C. to 35° C. and about 40% to 90% RH) | change in colour, Infrared spectrum (KBr) and X-ray diffractogram on storage ([2]; ambient conditions of storage, room temperature for one month)
1 | Cc1cc2c(s1)Nc1ccccc1N=C2N1CCN(C)CC1 [Form II, olanzapine, reference compound] | satisfactory colour stability |  |  |  |  |  |  | 
2 | Cc1cc2c(s1)Nc1ccccc1N=C2N1CCN(C)CC1 [Form I, 2-methyl-4-(4-methyl-1-piperazinyl)-10H-thieno[2,3-b][1,5]benzodiazepine] | colour changes upon storage and exposure to air; also recorded: change its colour on standing | metastable | no changes in colour, infra-red spectrum and x-ray diffractogram | No change in colour, Infrared spectrum (KBr) and X-ray diffractogram | no changes in colour, infra-red spectrum and x-ray diffractogram | No change in colour, Infrared spectrum (KBr) and X-ray diffractogram | no change in colour, infrared spectrum and x-ray diffractogram | No change in colour, Infrared spectrum (KBr) and X-ray diffractogram
